These results are taken from patent US8324273B2 (XenoPort, Inc., priority 2006, dated 2012).

Series [1] is described as follows: Hygroscopicity of crystalline hydrogen fumarate (21) crystallized from various solvents. The format is physicochemical. As to the method: (1R)-2-Acetyloxy-1-methylethyl (2S)-2-amino-3-[3,4-bis(ethoxycarbonyloxy)phenyl]propanoate hydrogen fumarate (21) was crystallized using the solvents listed in Table 1 on a 100 mg scale.
The conditions of series [2]: following oral administration of NB-355; cited from earlier work.
Series [3] is described as follows: Intracolonic bioavailability of levodopa prodrugs in monkeys. Type of series: in vivo, male Cynomologous monkeys. The settings on record: male, monkey, whole blood, intravenous, 10 mg; read-out: mean AUCinf. The procedure:
Male Cynomologous monkeys weighing about 3.0 kg were used in the studies. Monkeys are fasted overnight prior to the study until 4 hours after dosing. Water was provided ad libitum.
Carbidopa was prepared as a solution (0.72 mg/mL) in sodium acetate buffer pH 5.16.
Blood samples were collected at pre-dose and at 0.17, 0.25, 0.5, 0.75, 1, 2, 4, 6, 8, 12, and 24 hours post-dose. About 0.3 mL of blood was collected in pre-chilled K2EDTA tubes containing 100 μL of 10% sodium metabisulfite. The contents were gently vortexed at low speed to ensure that the sampled blood came into contact with sodium metabisulfite while maintaining ice on the samples at all times. About 0.1 mL of the anticoagulated blood was added to each of 2 pre-chilled cryovials that each contained about 0.3 mL of quenching media (89.3% v/v methanol and 10.7% v/v 4N perchloric acid) within 5 minutes of bleed. Within 30 minutes of blood collection, the samples were centrifuged at about 3,000 rpm, 4° C., for 10 min. The samples were then stored at −70° C.
Blood samples were analyzed as described in Example 30.

With `CCOC(=O)Oc1ccc(C[C@H](N)C(=O)O[C@H](C)COC(C)=O)cc1OC(=O)OCC.O=C(O)/C=C/C(=O)O` [Compound 21, (1R)-2-Acetyloxy-1-methylethyl (2S)-2-Amino-3-[3,4-bis(ethoxycarbonyloxy)phenyl]propanoate Hydrogen Fumarate], the melting point (commonly the temperature of the solid-liquid transition) was 78.1 to 80.7 °C. For the same compound, the Hygroscopicity entry in series [1] (crystallized from acetonitrile-methyl tert-butyl ether) is given as “None”. Also, the Hygroscopicity result in series [1] (crystallized from ethyl acetate) is “None”. In series [1] (crystallized from ethyl acetate-diisopropyl ether), the Hygroscopicity result is “None”. Moreover, the Hygroscopicity entry in series [1] (crystallized from ethyl acetate-methyl tert-butyl ether) is recorded as “None”.
For the compound `CC(C)(C)C(=O)Oc1ccc(C[C@H](N)C(=O)O)cc1O` [NB-355], in series [2], the “duration of circulating levodopa” value is given as “prolonged” and the “plasma concentrations of levodopa” value was “low”.
Take `N[C@@H](Cc1ccc(O)c(O)c1)C(=O)O` [levodopa, L-3,4-dihydroxyphenylalanine]: the AUC(0-inf) in series [3] worked out at 3690 ng·h/mL.
